Measured values reported in patent US7994127B2, “Treatment of rett syndrome” (Massachusetts Institute of Technology, priority 2007, dated 2011).

Columns and labels:
BDNF = BDNF expression (mRNA micro-array, proBDNF staining) in V1 during monocular deprivation; format: in vivo, mouse; conditions: mice subjected to MD and treated; vs MD and control
Protocol: (§1) A: Effects of (1-3)IGF-1 (GPE) treatment on the expression levels of BDNF at mRNA level. […] (1-3)IGF-1 treatment is able to increase expression though not to control levels. The RNA levels were obtained with the micro-array analysis described in Tropea et al., 2006. B: Double staining for NeuN (green) and proBDNF (red) antibody. […] Anti-pro BDNF and anti-NeuN were obtained from CHEMICON and used at a concentration of 1:500. The solutions and time of incubations are the following: preincubation in 5% BSA, 0.1% triton, 10% serum, PBS. Incubation with the primary antibodies was carried out at 4 degrees for 3 days in the following solution: 2% BSA, 5% serum, 0.1% triton, PBS. After washings in PBS secondary biotinylated (for pro-BDNF) or Alexa conjugated (for NeuN) antibodies (1:200) were incubated for 2 hours in the same solution of the primary antibodies. The pro-BDNF labeling was detected by adding extravidine tritc (Sigma—1:300). C: Effects of (1-3)IGF-1 (GPE) treatment on the mRNA expression levels of tPA. […] Anti-tPA was purchased from Oxford Biomedical Research and used at a concentration of 1:500. The conditions for incubation were the following: free floating sections were pre-incubated in blocking solution: 10% serum, 0.3% triton, PBS and then left overnight in the primary antibody mix: 1% serum, 0.3% triton, PBS, anti-tPA 1:500, anti Neu-N 1:500. […]

tPA = tPA expression (mRNA, tPA staining) during monocular deprivation; format: in vivo, mouse; conditions: mice subjected to MD and treated
Protocol: as §1

[1] = test system: layer 5 pyramidal neurons of MeCP2−/y mice; assay: Intracellular whole-cell recordings of spontaneous EPSCs in acute cortical slices; format: ex vivo, mouse
Protocol: (1-3)IGF-1 treatment: For the survival measurements, the nocturnal activity analysis and the immunoblot analysis, (1-3) IGF-1 (Bachem Biosciences # H22468) was administered daily via intra-peritoneal injections (0.01 mg/g body weight, vehicle=saline, 0.01% BSA). The treatment was started at P15 and maintained throughout the course of the experiments. For intracellular physiology experiments, the mice were injected daily (0.01 mg/g body weight, vehicle=saline, 0.01% BSA) for 2 weeks, from P15 to P28-P32 when they were used for acute slice preparation. For optical imaging experiments, mice were injected with (1-3) IGF-1 (0.02 mg/g body weight, vehicle=saline, 0.01% BSA) daily from the day of the lid suture to the day of imaging. Slice physiology preparation: Coronal sections (300 μm thick) at or near sensorimotor cortex were cut in <4° C. ACSF using a Vibratome. Slices were incubated at 37° C. for 20 minutes after slicing, and at room temperature for the remainder of the experiment. Slices were transferred to a Warner chamber and recordings were taken from visually identified pyramidal neurons located in layer 5. Artificial cerebral spinal fluid (ACSF) contained 126 mM NaCl, 25 mM NaHCO3, 1 mM NaHPO4, 3 mM KCl, 2 mM MgSO4, 2 mM CaCl2, and 14 mM dextrose, was adjusted to 315-320 mOsm and 7.4 pH, and was bubbled with 95% O2/5% CO2. The intracellular pipette solution contained 100 mM potassium gluconate, 20 mM KCl, 10 mM HEPES, 4 mM MgATP, 0.3 mM NaGTP, and 10 mM Na-phosphocreatine. […] Cells were visualized with an Achroplan 40× water-immersion lens with infrared-DIC optics (Zeiss) and detected with an infrared camera (Hamamatsu) projecting to a video monitor. […] Then in current clamp ˜10 pulses (500 ms, 40-140 pA at 10 pA increments), were applied to quantify evoked firing rates and cellular excitability. […] Analysis was performed using a custom software package written in Matlab, with all events detected according to automated thresholds and blindly verified for each event individually by the experimenter. […]

synaptic transmission = assay: Synaptic transmission during direct application of the molecules; format: cell-based, mouse; conditions: direct application of the molecule
Description: rhIGF1 produced a similar improvement as (1-3)IGF-1 in all maturational signatures measured, including (A) synaptic transmission levels, and (B) circuit stability (by preventing ocular dominance plasticity) in P60 MeCP2 KO mice.
The above data focused on the (1-3)IGF-1 fragment of IGF1 to promote IGF1 signaling. We also have tested the effect of the full-length IGF1 peptide already approved for pediatric administration in human patients (for short stature indications). We have verified a correspondence in the effects of (1-3)IGF-1 and recombinant human IGF1 (rhIGF1).

[2] = test system: visual cortex of adult MeCP2+/− mice; assay: Ocular dominance plasticity after monocular deprivation, optical imaging of intrinsic signals; format: in vivo, mouse

NCC(=O)N1CCC[C@H]1C(=O)N[C@@H](CCC(=O)O)C(=O)O [(1-3)IGF-1, glycyl-L-prolyl-L-glutamic acid]
BDNF mRNA expression level in contralateral V1 (FIG. 8A) (BDNF): increase expression in animals subjected to MD, though not to control levels | BDNF protein expression, proBDNF staining (FIG. 8B) (BDNF): increasing BDNF protein expression, though not to control levels | tPA protein expression level, tPA staining (FIG. 8D) (tPA): strongly increased | tPA mRNA expression (FIG. 8C) (tPA; vs control and deprived animals): significantly up-regulated tPA mRNA expression relative to both control and deprived animals | mean EPSC amplitude per neuron, across all cells (FIG. 1C) ([1]; KO-T compared to KO, treated two weeks, mice 28-32 days old): modestly but significantly increased | spontaneous EPSC amplitude (FIG. 1B) ([1]; MeCP2−/y mice, 0.01 mg/g body weight IP daily for 2 weeks, P15 to P28-P32, vs vehicle-treated MeCP2−/y): significantly larger in amplitude | distributions of intervals between EPSC events (EPSC frequency, FIG. 1D) ([1]; between WT, and KO and KO-T groups): subtly but significantly modified | synaptic activity / synaptic transmission levels (FIG. 9A) (synaptic transmission): striking enhancements of synaptic activity | maturation of cortical circuitry during ocular dominance plasticity (FIG. 9B) ([2]; (1-3)IGF-1 as in Example 1): promoted to similar degrees | ocular dominance plasticity (ODI shift after MD, FIG. 3C-D) ([2]; female MeCP2+/− mice P60 or more, MD 4 days, 0.02 mg/g body weight IP daily during MD): prevented the OD plasticity
